Assay results from US12459926B2, “THRβ receptor agonist compound and preparation method and use thereof” (Terns, Inc., priority 2018, dated 2025).

Tests used:
[1] = biological target: TRβ LBD (Homo sapiens, UniProt P10828); conditions: ratio of THRα to THRβ binding force
[2] = Pharmacokinetic evaluation in rats after intragastric infusion; format: in vivo; conditions: male SD rats, 2 mg/kg single dose, plasma

TRβ LBD, sequence (P10828 217-461 limits assumed, other chains not shown): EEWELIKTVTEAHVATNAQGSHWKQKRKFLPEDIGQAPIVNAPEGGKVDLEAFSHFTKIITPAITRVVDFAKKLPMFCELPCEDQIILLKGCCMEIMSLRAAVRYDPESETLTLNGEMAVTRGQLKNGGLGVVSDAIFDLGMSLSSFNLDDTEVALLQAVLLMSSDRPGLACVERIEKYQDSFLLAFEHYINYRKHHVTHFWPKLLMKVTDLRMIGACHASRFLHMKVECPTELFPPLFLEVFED
TRβ LBD, sequence (P28702 whole entry partner, other chains not shown, the tested form may be a part): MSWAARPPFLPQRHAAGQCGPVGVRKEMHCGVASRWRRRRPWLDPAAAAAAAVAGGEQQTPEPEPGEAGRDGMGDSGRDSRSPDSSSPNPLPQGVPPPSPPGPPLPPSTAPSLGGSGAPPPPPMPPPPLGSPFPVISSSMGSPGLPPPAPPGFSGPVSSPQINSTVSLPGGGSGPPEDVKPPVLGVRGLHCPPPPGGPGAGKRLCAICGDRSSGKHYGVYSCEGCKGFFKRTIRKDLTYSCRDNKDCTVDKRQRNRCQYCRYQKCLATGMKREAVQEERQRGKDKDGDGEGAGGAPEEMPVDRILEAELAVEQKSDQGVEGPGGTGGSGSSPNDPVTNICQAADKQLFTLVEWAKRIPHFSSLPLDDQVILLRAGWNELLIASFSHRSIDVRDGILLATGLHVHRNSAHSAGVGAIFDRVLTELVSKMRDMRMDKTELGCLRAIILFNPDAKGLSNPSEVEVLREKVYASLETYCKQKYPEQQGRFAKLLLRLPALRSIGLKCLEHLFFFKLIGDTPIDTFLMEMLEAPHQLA

Curve area [2] [ng·h/mL]	Time to peak [2] [h]	half-life ([2]; rat, po) [h]	Structure (SMILES)	THRα/β selectivity (factor) [1] [factor]
–	–	–	N#Cc1nn(-c2cc(Cl)c(Oc3n[nH]c(=O)c4c3CCCC4)c(Cl)c2)c(=O)[nH]c1=O [Embodiment 1, 2-(3,5-dichloro-4-((4-oxo-3,4,5,6,7,8-hexahydrophthalazin-1-yl)oxy)phenyl)-3,5-dioxo-2,3,4,5-tetrahydro-1,2,4-triazine-6-nitrile]	>8.1
9242 ± 1245	5.33 ± 1.15	5.14 ± 0.83	CC1(C)CCc2c(Oc3c(Cl)cc(-n4nc(C#N)c(=O)[nH]c4=O)cc3Cl)n[nH]c(=O)c21 [Embodiment 4, 2-(3,5-dichloro-4-((7,7-dimethyl-1-oxo-2,5,6,7-tetrahydro-1H-cyclopenta[d]pyridazin-4-yl)oxy)phenyl)-3,5-dioxo-2,3,4,5-tetrahydro-1,2,4-triazine-6-carbonitrile]	–
–	–	–	N#Cc1nn(-c2cc(Cl)c(Oc3n[nH]c(=O)c4ccccc34)c(Cl)c2)c(=O)[nH]c1=O [Embodiment 9, 2-(3,5-dichloro-4-((4-oxo-3,4-dihydrophthalazin-1-yl)oxo)phenyl)-3,5-dioxo-2,3,4,5-tetrahydro-1,2,4-triazine-6-nitrile]	>58.8
–	–	–	N#Cc1nn(-c2cc(Cl)c(Oc3n[nH]c(=O)c4c(Cl)cccc34)c(Cl)c2)c(=O)[nH]c1=O [Embodiment 10, 2-(3,5-dichloro-4-((5-chloro-4-oxo-3,4-dihydrophthalazin-1-yl)oxo)phenyl)-3,5-dioxo-2,3,4,5-tetrahydro-1,2,4-triazine-6-nitrile]	>6.80
